Results published in patent US20070004724A1, “(+)-(2S,3s)-2-(3-chlorophenyl)-3,5,5-trimethyl-2-morpholinor for treating anxiety” (priority 2003, published 2007).
Counter-ions that a name gives are not always drawn.

Experiments:
Male Sprague Dawley rats [1] = assay: Social interaction test in rats, chronic study; assay type: in vivo, rat; conditions: for Number of line crossings: motor activity; for Number of line crossings / Time spent in active social interaction: average±s.e.
Procedure: (§1) Social Interaction Test in Rats [Animal Models for Predicting Clinical Efficacy of Anxiolytic Drugs: Social Behaviour. Neuropsychobiology. 13 (1-2) 55-62, 1985]
(§2) Male Sprague Dawley rats (350-400 g at day of test, Charles River, Italy) were individually housed for five days before the test session. The 15 minutes social interaction test was performed between 9:00 to 14:00. Pairs of rats, weight and treatment matched, were placed in the test arena under high light condition. Active social interaction (sniffing, following, grooming, biting, boxing, crawling over and under) and motor activity, in terms of line crossing were scored by an observer blind to the drug treatment. The animals were treated orally with vehicle (2 ml/kg) or with the hydrochloride salt of the compound of formula (I) at 3, 10 and 30 mg/kg, 45 minutes prior to the test (acute study), or for 20 days twice a day and with a final treatment given on day 21, the last treatment given 45 minutes before the test (chronic study). An additional group of rats (positive control group) received a single oral dose of chlordiazepoxide (CDP) 4 mg/kg 1 hour before testing.
The results of the chronic study are given below in Table 3 (values given as average±s.e.), with the data for social interaction also illustrated in FIG. 1.

[2] = biological target: T1, dopamine (DA) uptake, synaptosomes from rat caudoputamen (Rattus norvegicus, UniProt P23977); assay: In vitro synaptosomal uptake of [3H]-dopamine; assay type: biochemical; conditions: [3H]-dopamine uptake, mean ± SEM of 3 experiments
T1 construct: Synaptosomes for use in obtaining in vitro uptake data were prepared from hypothalamus or striatum; from tissue; host or cells: rat caudoputamen (striatum) synaptosomes
Procedure: In vitro uptake was determined, as reported previously, using synaptosomes prepared from rat caudoputamen (for dopamine uptake) and hypothalamus (for NA and serotonin uptake) using [^3H]-dopamine, [^3H]-NA and [^3H]-serotonin as transport substrates, respectively. See Eckhardt, S. B., R. A. Maxwell, and R. M. Ferris, A Structure-Activity Study of the Transport Sites for the Hypothalamic and Striatal Catecholamine Uptake Systems. Similarities and differences. Molecular Pharmacology, 21: p. 374-9, 1982.
Synaptosomes for use in obtaining in vitro uptake data were prepared from hypothalamus or striatum by gently homogenizing the tissue in a 0.3 M sucrose/25 mM Tris pH 7.4 buffer containing iproniazid phosphate to inhibit monoamine oxidase. The homogenate was centrifuged at 1100×g at 4° C. for 10 min and the supernatant was used for uptake studies. […] Under these conditions uptake was linear with respect to both for substrate and tissue (with <5% total substrate transported). Non-specific uptake was defined as uptake at 0° C. [^3H]-substrate, which had been transported into synaptosomes, was separated from free [^3H]-substrate by filtration over GF/B filters and washing with cold Krebs-Henseleit buffer. The filters were counted for tritum in a liquid scintillation spectrometer.

[3] = biological target: T2, serotonin uptake, synaptosomes from rat hypothalamus (Rattus norvegicus, UniProt P31652); assay: In vitro synaptosomal uptake of [3H]-serotonin; assay type: biochemical
T2 construct: Synaptosomes for use in obtaining in vitro uptake data were prepared from hypothalamus or striatum; from tissue; host or cells: rat hypothalamus synaptosomes
Text: Similarities and differences. Molecular Pharmacology, 21: p.

Male Sprague Dawley rats [4] = assay: Social interaction test in rats, acute study; assay type: in vivo; conditions: acute rat social interaction study
Procedure: as §1, §2
The results for social interaction in the acute study are illustrated in FIG. 2.

[5] = test system: cell-lines expressing human monoamine transporters; assay: Compound-induced cytotoxicity in the transporter cell-lines; assay type: cell-based; conditions: at any of the concentrations causing reuptake inhibition
CD-1 mice = assay: Light & dark box test in mice; assay type: in vivo; conditions: 3 mg/kg oral, 30 minutes before test
Text: Light & Dark Box Test in Mice [Costall B. Jones B J. Kelly […]. and Tomkins D M. Exploration of Mice in a Black and White Test Box: Validation as a Model of Anxiety. Pharmacology, Biochemistry & Behavior. 32 (3):777-85, 1989] The light-dark box test consists of a Perspex box which is divided into two compartments, two-thirds of which is painted white and the remaining third is painted black. Mice are able to move freely between the two compartments using a small gap in the wall separating the two compartments. The floor is marked with lines, which provided an index of motor activity of the animals (number of line crossings). A white light (60 W) is placed over the white compartment of the box to provide a brightly-lit area which the animals find aversive. Mice tend to escape from this area preferring to remain in the black area, returning only occasionally to explore the white area. […] CD-1 mice (25-30 g, Charles River, Italy) were placed individually into the centre of the white side of the black/white test box for the 5 min test period and the behaviour of the mice was recorded by remote video recording. Behaviour of the mice was assessed subsequently from the tape recordings by an observer who was unaware of the animals' treatment. Different parameters were assessed to estimate both the anxiolytic and the sedative effects of the compound tested. […]

[6] = chronic study, at 3 and 10 mg/kg oral

T2 sequence (P31652 whole entry): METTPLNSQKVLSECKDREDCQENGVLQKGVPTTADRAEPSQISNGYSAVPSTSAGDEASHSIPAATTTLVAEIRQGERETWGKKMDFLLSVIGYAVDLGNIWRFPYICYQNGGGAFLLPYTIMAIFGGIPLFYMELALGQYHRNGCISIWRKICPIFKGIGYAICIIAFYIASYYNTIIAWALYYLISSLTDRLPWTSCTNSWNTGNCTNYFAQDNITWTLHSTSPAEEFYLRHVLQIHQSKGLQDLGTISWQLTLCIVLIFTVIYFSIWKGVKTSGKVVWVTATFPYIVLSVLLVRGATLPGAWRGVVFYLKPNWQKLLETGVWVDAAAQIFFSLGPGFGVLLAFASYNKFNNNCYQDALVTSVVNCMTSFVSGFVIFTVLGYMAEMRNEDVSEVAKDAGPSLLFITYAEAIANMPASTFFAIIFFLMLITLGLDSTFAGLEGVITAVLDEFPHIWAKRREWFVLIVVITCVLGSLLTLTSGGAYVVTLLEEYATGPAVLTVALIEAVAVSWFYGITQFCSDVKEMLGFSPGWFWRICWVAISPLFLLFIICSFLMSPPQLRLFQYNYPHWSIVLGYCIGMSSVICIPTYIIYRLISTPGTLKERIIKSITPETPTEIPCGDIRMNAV
T1 sequence (P23977 whole entry): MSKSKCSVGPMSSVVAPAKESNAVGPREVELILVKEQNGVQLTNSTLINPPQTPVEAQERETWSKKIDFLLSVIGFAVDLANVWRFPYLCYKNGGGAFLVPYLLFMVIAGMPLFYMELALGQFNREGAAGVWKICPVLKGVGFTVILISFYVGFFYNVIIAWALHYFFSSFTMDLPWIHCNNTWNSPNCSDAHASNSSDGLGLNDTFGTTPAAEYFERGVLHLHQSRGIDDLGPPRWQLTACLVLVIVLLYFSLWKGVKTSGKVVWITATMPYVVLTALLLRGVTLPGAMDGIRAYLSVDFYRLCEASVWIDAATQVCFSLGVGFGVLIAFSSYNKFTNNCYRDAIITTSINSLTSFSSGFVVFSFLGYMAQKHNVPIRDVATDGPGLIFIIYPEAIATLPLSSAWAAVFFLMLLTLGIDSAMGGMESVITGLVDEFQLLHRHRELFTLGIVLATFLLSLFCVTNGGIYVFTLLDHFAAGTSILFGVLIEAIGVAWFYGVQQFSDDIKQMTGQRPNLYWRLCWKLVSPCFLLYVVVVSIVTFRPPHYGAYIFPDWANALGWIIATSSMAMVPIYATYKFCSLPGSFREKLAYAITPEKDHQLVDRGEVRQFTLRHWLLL

CNC1=Nc2ccc(Cl)cc2C(c2ccccc2)=[N+]([O-])C1 [CDP, chlordiazepoxide, reference compound]
Number of line crossings (Male Sprague Dawley rats [1]; positive control, single oral dose 4 mg/kg, n=14): 560.1 ± 29.6
Time spent in active social interaction, % (change relative to vehicle) (Male Sprague Dawley rats [1]; positive control, single oral dose 4 mg/kg): 53.2%
Time spent in active social interaction (Male Sprague Dawley rats [1]; positive control, single oral dose 4 mg/kg 1 hour before testing, n=14): 124.4 ± 10.7 s

C[C@@H]1NC(C)(C)CO[C@@]1(O)c1cccc(Cl)c1 [Formula (I), (+)-(2S,3S)-2-(3-chlorophenyl)-3,5,5-trimethyl-2-morpholinol]
IC50 [2]: 9.3 ± 0.41 µM
IC50 [3]: > 30 µM
inhibition of serotonin uptake ([3]; at 30 μM): no inhibition
anxiogenic activity (Male Sprague Dawley rats [4]): lack of anxiogenic activity

C[C@@H]1NC(C)(C)CO[C@@]1(O)c1cccc(Cl)c1 [Formula (I). HCl, (+)-(2S,3S)-2-(3-chlorophenyl)-3,5,5-trimethyl-2-morpholinol hydrochloride]
cytotoxicity [5]: No cytotoxicity was observed
Time spent in active social interaction (Male Sprague Dawley rats [1]; chronic study, 3 mg/kg oral twice a day 20 days + day 21, 45 min before test, n=14): 114.0 ± 11.5 s
Time spent in active social interaction (Male Sprague Dawley rats [1]; chronic study, 10 mg/kg oral twice a day 20 days + day 21, 45 min before test, n=10): 126.4 ± 13.8 s
Time spent in active social interaction (Male Sprague Dawley rats [1]; chronic study, 30 mg/kg oral twice a day 20 days + day 21, 45 min before test, n=14): 97.6 ± 8.7 s
effect on social interaction (Male Sprague Dawley rats [1]; chronic study, at 30 mg/kg oral): lack of effect on social interaction
effect on locomotor activity (Male Sprague Dawley rats [1]; chronic study, at 30 mg/kg oral, compared to vehicle): significant reduction in locomotor activity
anxiolytic-like effect in social interaction test (Male Sprague Dawley rats [1]; [6]): able to induce an anxiolytic-like effect
effect on locomotor activity (Male Sprague Dawley rats [1]; [6]): without any significant effects on locomotor activity
Number of line crossings (Male Sprague Dawley rats [1]; chronic study, 3 mg/kg oral, n=14): 587.0 ± 29.1
Number of line crossings (Male Sprague Dawley rats [1]; chronic study, 10 mg/kg oral, n=10): 571.0 ± 44.1
Number of line crossings (Male Sprague Dawley rats [1]; chronic study, 30 mg/kg oral, n=14): 476.2 ± 42.6
anxiolytic-like effect in light & dark box test (CD-1 mice): able to induce an anxiolytic-like effect
